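Cells were grown in 96-well plates and exposed to each compound for 48 hours at five concentrations; endpoints were interpolated linearly between bracketing concentrations, or set to the highest concentration if not reached. TGI is the concentration that stops growth completely.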
Experiments:
Test in all cases: NCI tumour cell line growth inhibition, 48 h
786-0 renal = system: 786-0 renal
M19-MEL melanoma = system: M19-MEL melanoma
SF-295 CNS = system: SF-295 CNS
NCI-H23 lung = system: NCI-H23 lung
EKVX NSCLC = system: EKVX NSCLC
HCT-116 colon = system: HCT-116 colon
MOLT-4 leukemia = system: MOLT-4 leukemia
TK-10 renal = system: TK-10 renal
HOP-62 NSCLC = system: HOP-62 NSCLC
DLD-1 colon = system: DLD-1 colon
SK-MEL-5 melanoma = system: SK-MEL-5 melanoma
SW-620 colon = system: SW-620 colon
A549 NSCLC = system: A549 NSCLC
OVCAR-4 ovarian = system: OVCAR-4 ovarian
UO-31 renal = system: UO-31 renal
A498 renal = system: A498 renal
ACHN renal = system: ACHN renal
COLO 205 colon = system: COLO 205 colon
IGROV1 ovarian = system: IGROV1 ovarian
HCC-2998 colon = system: HCC-2998 colon
NCI-H460 lung = system: NCI-H460 lung
NCI-H522 lung = system: NCI-H522 lung
OVCAR-8 ovarian = system: OVCAR-8 ovarian
LXFL 529 NSCLC = system: LXFL 529 NSCLC
HOP-18 NSCLC = system: HOP-18 NSCLC
RXF-631 renal = system: RXF-631 renal
OVCAR-3 ovarian = system: OVCAR-3 ovarian
HL-60(TB) leukemia = system: HL-60(TB) leukemia
SK-OV-3 ovarian = system: SK-OV-3 ovarian
CAKI-1 renal = system: CAKI-1 renal
CCRF-CEM leukemia = system: CCRF-CEM leukemia
SK-MEL-28 melanoma = system: SK-MEL-28 melanoma
DMS 273 small cell lung = system: DMS 273 small cell lung
KM12 colon = system: KM12 colon
U251 CNS = system: U251 CNS
UACC-62 melanoma = system: UACC-62 melanoma
RXF 393 renal = system: RXF 393 renal
SN12C renal = system: SN12C renal
SK-MEL-2 melanoma = system: SK-MEL-2 melanoma
HOP-92 NSCLC = system: HOP-92 NSCLC
XF 498 CNS = system: XF 498 CNS
SNB-75 CNS = system: SNB-75 CNS
SNB-78 CNS = system: SNB-78 CNS
HCT-15 colon = system: HCT-15 colon
SNB-19 CNS = system: SNB-19 CNS
SF-268 CNS = system: SF-268 CNS
MALME-3M melanoma = system: MALME-3M melanoma
KM20L2 colon = system: KM20L2 colon
NCI-H226 lung = system: NCI-H226 lung
UACC-257 melanoma = system: UACC-257 melanoma
HT29 colon = system: HT29 colon
DMS 114 small cell lung = system: DMS 114 small cell lung
M14 melanoma = system: M14 melanoma
LOX IMVI melanoma = system: LOX IMVI melanoma
K-562 leukemia = system: K-562 leukemia
RPMI-8226 leukemia = system: RPMI-8226 leukemia
OVCAR-5 ovarian = system: OVCAR-5 ovarian
SF-539 CNS = system: SF-539 CNS
SR leukemia = system: SR leukemia

In the case of `O=C1NC(=O)C(=Nc2cccc3c(=O)[nH][nH]c(=O)c23)C(c2nc3ccccc3s2)C1=O` (stereo unspecified), the TGI (786-0 renal) is reported as > 100 µM, the TGI (M19-MEL melanoma) is reported as > 100 µM and the TGI (SF-295 CNS) is reported as > 100 µM. The TGI (NCI-H23 lung) was > 100 µM, the TGI (EKVX NSCLC) was > 100 µM and the TGI (HCT-116 colon) was > 100 µM. For the same compound, the TGI (MOLT-4 leukemia) was > 100 µM, the TGI (TK-10 renal) was > 100 µM and the TGI (HOP-62 NSCLC) was > 100 µM. For the same compound, the TGI (DLD-1 colon) was > 100 µM, the TGI (SK-MEL-5 melanoma) was > 100 µM and the TGI (SW-620 colon) was > 100 µM. For the same compound, the TGI (A549 NSCLC) was > 100 µM, the TGI (OVCAR-4 ovarian) was > 100 µM and the TGI (UO-31 renal) was > 100 µM. The TGI (A498 renal) was > 100 µM, the TGI (ACHN renal) was > 100 µM and the TGI (COLO 205 colon) was > 100 µM. The TGI (IGROV1 ovarian) was > 100 µM, the TGI (HCC-2998 colon) was > 100 µM and the TGI (NCI-H460 lung) was > 100 µM. The TGI (NCI-H522 lung) was > 100 µM, the TGI (OVCAR-8 ovarian) was > 100 µM and the TGI (LXFL 529 NSCLC) was > 100 µM. For the same compound, the TGI (HOP-18 NSCLC) was > 100 µM, the TGI (RXF-631 renal) was > 100 µM and the TGI (OVCAR-3 ovarian) was > 100 µM. For the same compound, the TGI (HL-60(TB) leukemia) was > 100 µM, the TGI (SK-OV-3 ovarian) was > 100 µM and the TGI (CAKI-1 renal) was > 100 µM. The TGI (CCRF-CEM leukemia) was > 100 µM, the TGI (SK-MEL-28 melanoma) was > 100 µM and the TGI (DMS 273 small cell lung) was > 100 µM. For the same compound, the TGI (KM12 colon) was > 100 µM, the TGI (U251 CNS) was > 100 µM and the TGI (UACC-62 melanoma) was > 100 µM. For the same compound, the TGI (RXF 393 renal) was > 100 µM, the TGI (SN12C renal) was > 100 µM and the TGI (SK-MEL-2 melanoma) was > 100 µM. For the same compound, the TGI (HOP-92 NSCLC) was > 100 µM, the TGI (XF 498 CNS) was > 100 µM and the TGI (SNB-75 CNS) was > 100 µM. The TGI (SNB-78 CNS) was > 100 µM, the TGI (HCT-15 colon) was > 100 µM and the TGI (SNB-19 CNS) was > 100 µM. For the same compound, the TGI (SF-268 CNS) was > 100 µM, the TGI (MALME-3M melanoma) was > 100 µM and the TGI (KM20L2 colon) was > 100 µM. The TGI (NCI-H226 lung) was > 100 µM, the TGI (UACC-257 melanoma) was > 100 µM and the TGI (HT29 colon) was > 100 µM. For the same compound, the TGI (DMS 114 small cell lung) was > 100 µM and the TGI (M14 melanoma) was > 100 µM.

`O=C1C=CC(=C(c2ccc(O)cc2)c2ccc(O)cc2)C=C1` gave a TGI (LOX IMVI melanoma) of 22.9 µM, a TGI (786-0 renal) of 26.5 µM and a TGI (SF-295 CNS) of 25.1 µM. The TGI (NCI-H23 lung) was 21.2 µM, the TGI (EKVX NSCLC) was 28.6 µM and the TGI (HCT-116 colon) was 22.7 µM. For the same compound, the TGI (MOLT-4 leukemia) was 29.7 µM, the TGI (TK-10 renal) was 33.4 µM and the TGI (HOP-62 NSCLC) was 35.2 µM. It also gave a TGI (DLD-1 colon) of 23.4 µM, a TGI (SK-MEL-5 melanoma) of 19.8 µM and a TGI (SW-620 colon) of 25.5 µM. The TGI (A549 NSCLC) was 53.3 µM, the TGI (OVCAR-4 ovarian) was 27.6 µM and the TGI (UO-31 renal) was 31.1 µM. The TGI (A498 renal) was 32 µM, the TGI (ACHN renal) was 28.7 µM and the TGI (COLO 205 colon) was 32.4 µM. It also gave a TGI (IGROV1 ovarian) of 28 µM, a TGI (HCC-2998 colon) of 27.6 µM and a TGI (NCI-H460 lung) of 30.5 µM. For the same compound, the TGI (NCI-H522 lung) was 21.8 µM, the TGI (OVCAR-8 ovarian) was 25.2 µM and the TGI (LXFL 529 NSCLC) was 10.8 µM. It also gave a TGI (HOP-18 NSCLC) of 30.3 µM, a TGI (RXF-631 renal) of 29.6 µM and a TGI (OVCAR-3 ovarian) of 19.9 µM. The TGI (HL-60(TB) leukemia) was 13.4 µM, the TGI (K-562 leukemia) was 14.2 µM and the TGI (SK-OV-3 ovarian) was 32.3 µM. It also gave a TGI (CAKI-1 renal) of 32.7 µM, a TGI (CCRF-CEM leukemia) of 12.2 µM and a TGI (SK-MEL-28 melanoma) of 25.3 µM. It also gave a TGI (DMS 273 small cell lung) of 19.9 µM, a TGI (RPMI-8226 leukemia) of 21 µM and a TGI (KM12 colon) of 26.1 µM. For the same compound, the TGI (U251 CNS) was 22.6 µM, the TGI (OVCAR-5 ovarian) was 32.3 µM and the TGI (UACC-62 melanoma) was 14.5 µM. For the same compound, the TGI (RXF 393 renal) was 16.9 µM, the TGI (SF-539 CNS) was 23.6 µM and the TGI (SN12C renal) was 21 µM. It also gave a TGI (SK-MEL-2 melanoma) of 17.7 µM, a TGI (HOP-92 NSCLC) of 9.27 µM and a TGI (XF 498 CNS) of 24.4 µM. The TGI (SNB-75 CNS) was 10.2 µM, the TGI (SNB-78 CNS) was 17.4 µM and the TGI (HCT-15 colon) was 28.6 µM. The TGI (SNB-19 CNS) was 29.3 µM, the TGI (SF-268 CNS) was 29.7 µM and the TGI (MALME-3M melanoma) was 24.9 µM. The TGI (KM20L2 colon) was 30.7 µM, the TGI (NCI-H226 lung) was 37.5 µM and the TGI (UACC-257 melanoma) was 21.7 µM. For the same compound, the TGI (HT29 colon) was 38.6 µM, the TGI (SR leukemia) was 7.37 µM and the TGI (DMS 114 small cell lung) was 7.54 µM. For the same compound, the TGI (M14 melanoma) was 26.4 µM.

Reference: PubChem BioAssay (NCI)
